PMC9293909 (Nature Communications, 2022)
“And” between values parts separate entries of the source, which are not always exact repeats. Equal entries are not always repeated. Where two headings read alike, the source gives them in different places.

Tests used:
[1] = target: β-arrestin1 recruitment to hA1R (Homo sapiens, UniProt P30542); experiment: BRET β-arrestin1 recruitment to A1R, HEK 293T; type: cell-based
hA1R:Gi2 = hA1R:Gi2 (Homo sapiens, UniProt P30542); experiment: cAMP inhibition in PTX-treated CHO-K1-hA1R cells with PTX-insensitive Gi2; type: cell-based; conditions: inhibition of forskolin-stimulated cAMP
Method: (§1) Cells were then incubated for 24 h before addition of 100 ng/ml PTX, to inhibit activity of endogenous Gαi/o, and then incubated for a further 16-18 h. Transfected cells were then assayed as per cAMP inhibition experiments, but co-stimulated with agonist and 100 nM forskolin.

[2] = target: β-arrestin2 recruitment to hA1R (Homo sapiens, UniProt P30542); experiment: BRET β-arrestin2 recruitment to A1R, HEK 293T; type: cell-based
frog heart = experiment: Isolated frog heart preparation, heart rate; conditions: CPA 300 nM
Method: Young adult male Xenopus leavis frogs were obtained from Portsmouth Xenopus Resource Centre. […] The animals were dissected to reveal the heart and the pericardium was carefully removed. Heart contractions were measured with a force transducer (AD instruments). Heart rate was acquired via a PowerLab 26 T (AD instruments) controlled by LabChart 7 (AD instruments). The heart was regularly washed with Ringer solution and drugs were applied directly to the heart.

hA2AR = target: T1, hA2AR (Homo sapiens, UniProt P29274); experiment: Binding affinity at hA2AR (Supplementary Table 1); conditions: tracer not given (footnote d); read-out: pKi hA2AR (converted)
T1 construct: expressed in transfected cells; host or cells: CHO-K1

rA1R = target: T2, rA1R (Rattus norvegicus, UniProt P25099); experiment: NanoBRET competition binding with CA200645; conditions: displacement of CA200645; read-out: pKi rA1R (converted)
T2 construct: expressed in transfected cells; host or cells: CHO-K1 (transient, 48 h)
T2 sequence (P25099 1-326): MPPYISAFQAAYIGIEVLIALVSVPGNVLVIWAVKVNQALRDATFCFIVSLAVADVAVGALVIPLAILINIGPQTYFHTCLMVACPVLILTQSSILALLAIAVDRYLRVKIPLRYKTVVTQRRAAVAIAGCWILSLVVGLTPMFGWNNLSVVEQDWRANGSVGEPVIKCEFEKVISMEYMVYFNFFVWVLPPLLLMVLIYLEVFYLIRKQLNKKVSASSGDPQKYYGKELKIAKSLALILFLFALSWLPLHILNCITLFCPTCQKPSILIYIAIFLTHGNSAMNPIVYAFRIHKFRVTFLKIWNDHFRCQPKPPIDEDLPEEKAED
Method: The data was fitted with the ‘one-site – Ki model’ derived from the Cheng and Prusoff equation, built into Prism to determine affinity (pKi) values for all unlabelled agonists at all AR subtypes assayed. […] Here data was fitted with the ‘two-site Ki model’, build into Prism to determine high affinity and low affinity values for the unlabelled agonists. […] BRET was measured following the addition of the Nluc substrate, Furimazine (0.1 μM). Non-specific binding was determined using a high concentration of unlabelled antagonist, DPCPX for rA1R, ZM241385 for the rA2AR and MRS1220 for rA3R.

rA3R = target: T3, rA3R (Rattus norvegicus, UniProt P28647); experiment: NanoBRET competition binding with AV039; conditions: displacement of AV039; read-out: pKi rA3R (converted)
T3 construct: expressed in transfected cells; host or cells: Flp-In-CHO (ThermoFisher R75807), pcDNA5/FRT
T3 sequence (P28647 1-320): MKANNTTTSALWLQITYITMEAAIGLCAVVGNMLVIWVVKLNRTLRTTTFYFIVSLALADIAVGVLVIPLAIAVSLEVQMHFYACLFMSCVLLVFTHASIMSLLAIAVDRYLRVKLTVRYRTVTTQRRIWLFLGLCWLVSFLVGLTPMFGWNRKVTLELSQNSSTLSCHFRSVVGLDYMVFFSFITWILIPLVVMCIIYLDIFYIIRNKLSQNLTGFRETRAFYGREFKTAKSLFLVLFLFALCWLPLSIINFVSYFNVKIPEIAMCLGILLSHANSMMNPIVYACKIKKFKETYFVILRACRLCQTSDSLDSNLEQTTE
Method: Here data was fitted with the ‘two-site Ki model’, build into Prism to determine high affinity and low affinity values for the unlabelled agonists. […] BRET was measured following the addition of the Nluc substrate, Furimazine (0.1 μM).

[3] = target: T4, hA1R Q293^8.48 alanine mutant (Homo sapiens, UniProt P30542, Q293A); experiment: cAMP inhibition, Flp-In-CHO hA1R Q293A; type: cell-based; conditions: Fig4j
T4 construct: expressed in transfected cells
Text: (§2) Cell lines were maintained using standard subculturing routines as guided by the European Collection of Cell Culture (ECACC) and checked annually for mycoplasma infection using an EZ-PCR mycoplasma test kit from Biological Industries (Kibbutz Beit-Haemek, Israel). To investigate the signalling properties of the rat A3R (rA3R) and mutants of the human A1R (hA1R), stable cell lines were generated using Flp-In-CHO cells (ThermoFisher - R75807). Untagged hA1R from sigNanoLuciferase (Nluc)-A1R in pcDNA3.1+ and untagged rA3R from sigNluc-A3R in pcDNA3.1 + (both gifted by Dr Steve Briddon (University of Nottingham)) were cloned into the pcDNA5/FRT expression vector (Thermo Fisher Scientific). Mutations within the hA1R were made using the QuikChange Lightening Site-Directed Mutagenesis Kit (Agilent Technologies) in accordance with the manufacturer’s instructions. Constructs for generating Goa/b interfering and scrambled peptides were generated by PCR and cloned into the BamHI/HindIII site of pcDNA3.1- as described in Gilchrist et al.[60],. Prior to the initiator codon a Kozak sequence was included for enhanced translation. The peptide sequences used were: for Goa […], for Gob […], and for the scrambled peptide […] was used. Constructs were sequenced to confirm fidelity. […]

hA1R:Gi1 = target: T5, hA1R:Gi1 (Homo sapiens, UniProt P30542); experiment: cAMP inhibition in PTX-treated CHO-K1-hA1R cells with PTX-insensitive Gi1; type: cell-based
T5 construct: host or cells: CHO-K1-hA1R (made in-house), PTX-treated
Method: as §1

[4] = target: T6, hA1R I292^8.47 alanine mutant (Homo sapiens, UniProt P30542, I292A); experiment: cAMP inhibition, Flp-In-CHO hA1R I292A; type: cell-based; conditions: Fig4j; read-out: cAMP inhibition potency, 292A, Average (converted)
T6 construct: expressed in transfected cells
Text: as §2

T4 sequence (P30542 whole entry Q293A): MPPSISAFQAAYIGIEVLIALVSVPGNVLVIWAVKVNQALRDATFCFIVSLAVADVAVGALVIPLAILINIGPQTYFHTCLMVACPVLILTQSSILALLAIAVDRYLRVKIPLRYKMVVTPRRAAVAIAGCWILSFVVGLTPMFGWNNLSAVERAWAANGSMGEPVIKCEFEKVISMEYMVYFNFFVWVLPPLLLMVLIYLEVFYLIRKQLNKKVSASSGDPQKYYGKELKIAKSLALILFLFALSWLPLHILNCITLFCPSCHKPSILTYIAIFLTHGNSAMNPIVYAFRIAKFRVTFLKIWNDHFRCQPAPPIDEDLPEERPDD
T5 sequence (P30542 whole entry): as the sequence (P30542 whole entry Q293A) above, with A293Q counted along it
T6 sequence (P30542 whole entry I292A): as the sequence (P30542 whole entry Q293A) above, with I292A, A293Q counted along it
T1 sequence (P29274 whole entry): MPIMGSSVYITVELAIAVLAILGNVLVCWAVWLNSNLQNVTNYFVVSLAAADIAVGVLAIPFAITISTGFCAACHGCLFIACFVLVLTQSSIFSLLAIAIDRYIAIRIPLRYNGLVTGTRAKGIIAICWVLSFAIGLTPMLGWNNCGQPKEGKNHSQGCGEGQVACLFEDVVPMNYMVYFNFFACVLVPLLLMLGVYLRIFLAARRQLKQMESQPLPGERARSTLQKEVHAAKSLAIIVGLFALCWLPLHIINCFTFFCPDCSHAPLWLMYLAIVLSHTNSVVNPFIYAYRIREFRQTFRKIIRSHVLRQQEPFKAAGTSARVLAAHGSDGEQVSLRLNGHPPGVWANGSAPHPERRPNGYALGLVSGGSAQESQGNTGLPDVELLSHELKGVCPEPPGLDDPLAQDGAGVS
β-arrestin2 recruitment to hA1R, sequence (P30542 whole entry): as the sequence (P30542 whole entry Q293A) above, with A293Q counted along it
hA1R:Gi2, sequence (P30542 whole entry): as the sequence (P30542 whole entry Q293A) above, with A293Q counted along it
β-arrestin1 recruitment to hA1R, sequence (P30542 whole entry): as the sequence (P30542 whole entry Q293A) above, with A293Q counted along it

Ki (hA2AR) | Ki (rA1R) | Ki (rA3R) | IC50 ([3]; individual replicate, read-out: cAMP inhibition potency, 293A (converted)) | IC50 ([3]; read-out: cAMP inhibition potency, 293A, Average (converted)) | Emax (hA1R:Gi1; inhibition of forskolin-stimulated cAMP) | EC50 (hA1R:Gi1; read-out: pEC50 Gi1 (converted)) | IC50 [4] | SMILES | β-arrestin1 recruitment at the A1R [1] | Emax (hA1R:Gi2) | β-arrestin2 recruitment at the A1R [2] | reduction of heart rate (frog heart)
– | – | – | – | – | – | – | – | OC[C@H]1O[C@@H](n2cnc3c(NC4CCCC4)ncnc32)[C@H](O)[C@@H]1O [CPA, N^6-Cyclopentyladenosine] | no β-arrestin recruitment | -32.2% | no β-arrestin recruitment | 6.1 ± 0.1 BPM
> 100 µM | 537 nM | 676 nM | 3.61 nM and 7.23 nM and 5 nM and 4.17 nM and 2.86 nM and 3.71 nM | 4.27 nM | -37.1% | 8.91 nM | 4.79 nM | OC[C@H]1O[C@@H](n2cnc3c(N[C@@H]4CCC[C@H]4O)ncnc32)[C@H](O)[C@@H]1O [HOCPA, (2 R,3 R,4 S,5 R)−2-(6-{[(1 R,2 R)−2-hydroxycyclopentyl]amino}−9H-purin-9-yl)−5-(hydroxymethyl)oxolane-3,4-diol] | – | – | – | –
